# Measurements as given in ChEMBL document CHEMBL1629541, “Synthesis and structure-activity relationships of aza- and diazabiphenyl analogues of the antitubercular drug (6S)-2-nitro-6-{[4-(trifluoromethoxy)benzyl]oxy}-6,7-dihydro-5H-imidazo[2,1-b][1,3]oxazine (PA-824)” (J Med Chem, 2010).
# Assays:
# [1] = system: Mycobacterium tuberculosis; assay: microbe, parasite or virus in culture; conditions: H37Rv
# Description: Antitubercular activity against Mycobacterium tuberculosis H37Rv by LORA method
# [2] = system: Mycobacterium tuberculosis; assay: microbe, parasite or virus in culture; conditions: H37Rv; remark: listed apart in the source
# in vitro [3] = conditions: human, liver microsomes
# Description: Metabolic stability in human liver microsomes assessed as compound remaining after 1 hr
# in vitro [4] = conditions: CD1, mouse, liver microsomes
# Description: Metabolic stability in CD1 mouse liver microsomes assessed as compound remaining after 1 hr
# physchem [5] = conditions: water, pH 7
# Description: Solubility of the compound in water at pH 7.0 by HPLC
# physchem [6] = conditions: water, pH 1
# Description: Solubility of the compound in water at pH 1.0 by HPLC
Compound,MIC [1] [µM],MIC [2] [µM],remaining at 1 h (in vitro [3]) [%],remaining at 1 h (in vitro [4]) [%],solubility (physchem [5]) [µg/mL],solubility (physchem [6]) [µg/mL]
O=[N+]([O-])c1cn2c(n1)OC[C@@H](OCc1ccc(-c3ccc(OC(F)F)nc3)cc1)C2,0.66,0.045,95,75,3.2,
O=[N+]([O-])c1cn2c(n1)OC[C@@H](OCc1ccc(-c3ccc(OC(F)(F)F)cc3F)nc1)C2,1.9,0.047,,,2.2,
O=[N+]([O-])c1cn2c(n1)OC[C@@H](OCc1ncc(-c3ccc(F)cc3)cn1)C2,12,0.13,,,50,
COc1ccc(-c2cncc(CO[C@@H]3COc4nc([N+](=O)[O-])cn4C3)c2)cn1,22,2.8,,,31,
O=[N+]([O-])c1cn2c(n1)OC[C@@H](OCc1cccc(-c3ccc(OCc4ccccc4)nc3)c1)C2,3,0.07,,,0.15,
O=[N+]([O-])c1cn2c(n1)OC[C@@H](OCc1cc(-c3ccc(OC(F)F)cc3)ccn1)C2,26,0.67,,,86,
O=[N+]([O-])c1cn2c(n1)OC[C@@H](OCc1ccc(-c3ccnc(F)c3)cn1)C2,14,1.7,,,42,
O=[N+]([O-])c1cn2c(n1)OC[C@@H](OCc1ccc(-c3ccc(Cl)c(OC(F)(F)F)c3)cn1)C2,2.3,0.06,,,0.8,
O=[N+]([O-])c1cn2c(n1)OC[C@@H](OCc1ccc(-c3ccc(C(F)(F)F)cc3)nc1)C2,0.53,0.053,,,1.2,
O=[N+]([O-])c1cn2c(n1)OC[C@@H](OCc1cccc(-c3cccnc3)c1)C2,9.7,1.4,,,110,
COc1ccc(-c2cccc(CO[C@@H]3COc4nc([N+](=O)[O-])cn4C3)c2)cn1,1.7,0.4,,,18,
O=[N+]([O-])c1cn2c(n1)OC[C@@H](OCc1cccc(-c3ccc(OC(F)F)cn3)c1)C2,6.4,0.21,,,6.7,
O=[N+]([O-])c1cn2c(n1)OC[C@@H](OCc1ccc(-c3ccncc3F)cc1)C2,3.9,0.56,,,16,
O=[N+]([O-])c1cn2c(n1)OC[C@@H](OCc1cncc(-c3ccc(OC(F)F)cc3)c1)C2,5.9,0.53,,,9.2,
O=[N+]([O-])c1cn2c(n1)OC[C@@H](OCc1cnc(-c3ccc(C(F)(F)F)cc3)cn1)C2,0.97,0.08,,,0.84,
Nc1ccc(-c2ccc(CO[C@@H]3COc4nc([N+](=O)[O-])cn4C3)cc2)cn1,19,2.6,,,13,
O=[N+]([O-])c1cn2c(n1)OC[C@@H](OCc1cccc(-c3ccc(F)nc3)c1)C2,5.1,0.37,,,26,
O=[N+]([O-])c1cn2c(n1)OC[C@@H](OCc1ccc(-c3ccncc3)cc1)C2,9.2,0.5,,,22,
O=[N+]([O-])c1cn2c(n1)OC[C@@H](OCc1ccccc1-c1cccnc1)C2,> 32,> 8,,,116,
O=[N+]([O-])c1cn2c(n1)OC[C@@H](OCc1ccc(-c3ccc(C(F)(F)F)cn3)cn1)C2,9.6,0.83,,,5.9,442
O=[N+]([O-])c1cn2c(n1)OC[C@@H](OCc1ccc(-c3ccc(F)nc3)cn1)C2,19,0.49,,,43,
COc1ccc(-c2ccccc2CO[C@@H]2COc3nc([N+](=O)[O-])cn3C2)cn1,8.3,5.2,,,48,
O=[N+]([O-])c1cn2c(n1)OC[C@@H](OCc1ncc(-c3ccc(C(F)(F)F)cc3)cn1)C2,3.5,0.06,,,2.7,
O=[N+]([O-])c1cn2c(n1)OC[C@@H](OCc1ccc(-c3ccc(C(F)(F)F)nc3)nn1)C2,14,0.55,,,12,

Compound,MIC [1] [µM],MIC [2] [µM],remaining at 1 h (in vitro [3]) [%],remaining at 1 h (in vitro [4]) [%],solubility (physchem [5]) [µg/mL],solubility (physchem [6]) [µg/mL]
N#Cc1ccc(-c2cncc(CO[C@@H]3COc4nc([N+](=O)[O-])cn4C3)c2)cc1,18,0.69,,,29,
N#Cc1ccc(-c2ccc(CO[C@@H]3COc4nc([N+](=O)[O-])cn4C3)nc2)cc1,7.5,0.18,,,45,
COc1ccc(-c2cc(CO[C@@H]3COc4nc([N+](=O)[O-])cn4C3)ccn2)cc1F,6.2,0.34,,,7.2,
COc1ccc(-c2ccc(CO[C@@H]3COc4nc([N+](=O)[O-])cn4C3)cn2)cc1F,1.9,0.09,,,2.1,
O=[N+]([O-])c1cn2c(n1)OC[C@@H](OCc1ccc(-c3cccc(F)n3)cn1)C2,20,1.4,,,41,
O=[N+]([O-])c1cn2c(n1)OC[C@@H](OCc1cnc(-c3ccc(OC(F)F)cc3)cn1)C2,1.3,0.2,,,5,
O=[N+]([O-])c1cn2c(n1)OC[C@@H](OCc1cc(-c3ccc(F)cc3)ccn1)C2,28,0.46,,,16,
COc1ccc(-c2ccc(CO[C@@H]3COc4nc([N+](=O)[O-])cn4C3)cc2)nc1,1.2,0.13,,,2.5,
O=[N+]([O-])c1cn2c(n1)OC[C@@H](OCc1ccc(-c3ccc(F)cc3)nn1)C2,5.6,0.19,,,8.3,
COc1ccc(-c2ccc(CO[C@@H]3COc4nc([N+](=O)[O-])cn4C3)nc2)cn1,9.6,0.36,,,24,
N#Cc1ccc(-c2cccc(CO[C@@H]3COc4nc([N+](=O)[O-])cn4C3)n2)cc1,10,0.48,,,24,
O=[N+]([O-])c1cn2c(n1)OC[C@@H](OCc1ccc(-c3cccnc3)cc1)C2,5.7,0.51,,,29,
COc1ccc(-c2cccc(CO[C@@H]3COc4nc([N+](=O)[O-])cn4C3)n2)cn1,5.2,0.71,,,14,
O=[N+]([O-])c1cn2c(n1)OC[C@@H](OCc1cccc(-c3ccc(C(F)(F)F)cc3)n1)C2,2.9,0.29,,,5,
COc1ccc(-c2ccc(CO[C@@H]3COc4nc([N+](=O)[O-])cn4C3)nc2)cc1F,3.4,0.17,,,10,
O=[N+]([O-])c1cn2c(n1)OC[C@@H](OCc1ccc(-c3ccc(F)nc3)nc1)C2,13,0.37,,,51,
O=[N+]([O-])c1cn2c(n1)OC[C@@H](OCc1ccc(-c3ccc(C(F)(F)F)cc3)cn1)C2,3.4,0.04,,,2.3,
N#Cc1ccc(-c2ccnc(CO[C@@H]3COc4nc([N+](=O)[O-])cn4C3)c2)cc1,> 32,2.1,,,19,
O=[N+]([O-])c1cn2c(n1)OC[C@@H](OCc1ccc(-c3ccc(C(F)(F)F)nc3)nc1)C2,17,0.19,,,7,
COc1ccc(-c2ccnc(CO[C@@H]3COc4nc([N+](=O)[O-])cn4C3)c2)cc1F,16,2.3,,,25,
O=[N+]([O-])c1cn2c(n1)OC[C@@H](OCc1ccc(-c3ccncc3F)cn1)C2,20,3.2,,,700,
COc1ccc(-c2cncc(CO[C@@H]3COc4nc([N+](=O)[O-])cn4C3)c2)cc1F,9,0.91,,,24,
O=[N+]([O-])c1cn2c(n1)OC[C@@H](OCc1cccc(-c3ccc(OC(F)F)cc3)n1)C2,2.7,0.17,,,9.6,
